Laboratory results taken from US5324725A, “7-fused 2-(piperazinoalkyl) indole derivatives, intermediates and compositions thereof” (Kali-Chemie Pharma GmbH, priority 1991, dated 1994).

Tests used:
[1] = test system: Histamine-induced anaphylactoid reactions; experiment: Inhibition of anaphylactoid cutaneous reaction induced by histamine; type: in vivo, rat (Sprague-Dawley); conditions: Rattus norvegicus, 1 h; rats, 2 × 10^-5 mol/kg p.o., one hour before challenge; histamine intradermal
Description: 1. Determination of the inhibition of passive cutaneous anaphylaxis (P.C.A.) and of the anaphylactoid cutaneous reaction induced by histamine.
The determination of the inhibition of passive cutaneous anaphylaxis and the anaphylactoid cutaneous reaction induced by histamine was carried out as follows:
To determine the histamine-induced anaphylactoid skin reaction, the animals were injected intradermally in the flank opposite to the antiserum administration with 50 μl of a physiological saline solution containing 0.8 mg/ml of histamine directly before the i.v. injection of the solution containing the ovalbumin and the blue dye.
On the test days, the test substances were dissolved in distilled water which contained 1% by volume of dimethylformamide and 1% by volume of Tween®20 (polyoxyethylene(20) sorbitan monolaurate). One hour before the challenging ovalbumin administration, each animal received 2×10^-5 mol/kg of test substance administered orally in 0.5 ml of solution. A control group received only the solvent for comparison.
The oedematous anaphylactic (P.C.A.) and anaphylactoid (histamine-induced) reactions caused by the challenging i.v. ovalbumin injection, which are manifested by oedema formation, swelling and exudation of blue dye, were evaluated 30 minutes after challenge by the i.v. ovalbumin injection. This was done by visual determination of the extent to which the blue dye emerges at the sites of oedema formation. The percentage inhibition of anaphylactic and anaphylactoid reactions caused by the test substances was determined in comparison with the reactions of the control animals not treated with test substance with the aid of comparison scales.
The results obtained by the above test methods using compounds of the formula I are shown in the following Table A. The example numbers given for the compounds of formula I relate to the following preparation examples.

[2] = test system: P.A.F.-induced aggregation of platelets from rabbit blood; experiment: Anti-P.A.F. effect in vitro: inhibition of P.A.F.-induced platelet aggregation; type: cell-based, rabbit (New Zealand hybrids); conditions: Oryctolagus cuniculus, Platelet, test substance concentration 10^-5 mol/l
Outline: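 Washed, aspirin-treated rabbit platelets (4×10^9/ml stock suspension) in modified Tyrode buffer, pH 7.4, preincubated 90 s with test compound at 10^-5 mol/l final, then challenged with P.A.F. Aggregation followed 4–5 min in an aggregometer. Inhibition expressed in % relative to P.A.F.-only (100%) and platelet-only (0%) controls.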

For Cc1ccnc(N2CCN(CCc3c(C)n4c5c(ccc(C(=O)C(C)C)c35)SCC4)CC2)c1 [Example 91], the inhibition in vivo at 20 µmol/kg [1] was 87% and the inhibition at 10 µM [2] was 58%.

With Cc1ccnc(N2CCN(CCc3cn4c5c(cccc35)CCC4)CC2)c1 [Example 13, 5,6-Dihydro-1-{2-[4-(4-methylpyridin-2-yl)piperazin-1-yl]ethyl}-4H-pyrrolo[3,2,1-ij]quinoline] the inhibition in vivo at 20 µmol/kg [1] was 68% and the inhibition at 10 µM [2] was 93%.

Cc1ccnc(N2CCN(CCc3c(C)n4c5c(ccc(C(O)C(C)C)c35)SCC4)CC2)c1 (stereo not shown) [Example 90] was tested, and the inhibition in vivo at 20 µmol/kg [1] was 77% and the inhibition at 10 µM [2] was 64%.

In the case of CCCCC1CCc2cc(O)cc3c(CCN4CCN(c5cc(C)ccn5)CC4)c(C)n1c23 (stereo not shown) [Example 76], the inhibition in vivo at 20 µmol/kg [1] is reported as 100% and the inhibition at 10 µM [2] is reported as 99%.

Work on Cc1ccnc(N2CCN(CCc3c(C)n4c5c(cc(Cc6ccccc6)cc35)CCC4)CC2)c1 [Example 77] yielded an inhibition in vivo at 20 µmol/kg [1] of 30% and an inhibition at 10 µM [2] of 100%.

In the case of Cc1ccnc(N2CCN(CCc3c(C)n4c5c(cccc35)CCC4c3ccc(O)cc3)CC2)c1 (stereo not shown) [Example 61], the inhibition in vivo at 20 µmol/kg [1] is reported as 100% and the inhibition at 10 µM [2] is reported as 83%.

Cc1ccnc(N2CCN(CCc3c(C)n4c5c(cccc35)SCC4)CC2)c1 [Example 11, 5-Methyl-6-{2-[4-(4-methylpyridin-2-yl)piperazin-1-yl]ethyl}-2,3-dihydro-pyrrolo[1,2,3-de]-1,4-benzo-thiazine] gave an inhibition in vivo at 20 µmol/kg [1] of 93% and an inhibition at 10 µM [2] of 89%.

In the case of Cc1ccnc(N2CCN(CCc3c(C)n4c5c(c(Cl)cc(Cl)c35)OCC4)CC2)c1 [Example 79], the inhibition at 10 µM [2] is reported as 71%.

In the case of Cc1ccnc(N2CCN(CCc3c(C)n4c5c(cccc35)CCC4c3ccccc3)CC2)c1 (stereo not shown) [Example 3, 5,6-dihydro-2-methyl-4-phenyl-1-{2-[4-(4-methylpyridine-2-yl)piperazin-1-yl]-ethyl}-4H-pyrrolo[3,2,1-ij]quinoline], the inhibition in vivo at 20 µmol/kg [1] is reported as 93% and the inhibition at 10 µM [2] is reported as 100%.

Work on CCCCCCCC1CCc2cccc3c(CCN4CCN(c5cc(C)ccn5)CC4)c(C)n1c23 (stereo not shown) [Example 4, 4-n-heptyl-5,6-dihydro-2-methyl-1-{2-[4-(4-methylpyridin-2-yl)piperazin-1-yl]ethyl}-4H-pyrrolo[3,2,1-ij]-quinoline] yielded an inhibition in vivo at 20 µmol/kg [1] of 55% and an inhibition at 10 µM [2] of 58%.

In the case of Cc1ccnc(N2CCN(CCc3c(-c4ccc(OCCCCO)cc4)n4c5c(cccc35)CCC4)CC2)c1 [Example 12, 2-[4-(4-Hydroxybutyloxy)-phenyl]-1-{2-[4-(4-methylpyridin-2-yl)piperazin-1-yl]ethyl}-5,6-dihydro-4H-pyrrolo[3,2,1-ij]quinoline], the inhibition in vivo at 20 µmol/kg [1] is reported as 25% and the inhibition at 10 µM [2] is reported as 100%.

For Cc1ccc(N2CCN(CCc3c(C)n4c5c(cccc35)CCC4)CC2)nc1 [Example 42], the inhibition in vivo at 20 µmol/kg [1] was 45%.

Cc1ccnc(N2CCN(CCc3c(C)n4c5c(cc(NC(=O)C(C)C)cc35)CCC4)CC2)c1 [Example 60] gave an inhibition in vivo at 20 µmol/kg [1] of 95% and an inhibition at 10 µM [2] of 44%.

For Cc1c(CCN2CCN(c3ccccn3)CC2)c2cccc3c2n1CCC3 [Example 37], the inhibition in vivo at 20 µmol/kg [1] was 58% and the inhibition at 10 µM [2] was 28%.

Work on Cc1ccnc(N2CCN(CCc3c(CO)n4c5c(cccc35)CCC4)CC2)c1 [Example 16, 5,6-dihydro-2-hydroxymethyl-1-{2-[4-(4-methylpyridin-2-yl)piperazin-1-yl]ethyl}-4H-pyrrolo[3,2,1-ij]quinoline] yielded an inhibition in vivo at 20 µmol/kg [1] of 73% and an inhibition at 10 µM [2] of 73%.

For COc1ccc(C2CCc3cc(OC)cc4c(CCN5CCN(c6cc(C)ccn6)CC5)c(C)n2c34)cc1 (stereo not shown) [Example 65], the inhibition in vivo at 20 µmol/kg [1] was 95% and the inhibition at 10 µM [2] was 100%.

CC(C)=Cc1cc2c3c(c1)c(CCN1CCN(c4cc(C)ccn4)CC1)c(C)n3CCC2 [Example 26, 5,6-Dihydro-2-methyl-8-(2-methylprop-1-enyl)-1-{2-[4-(4-methylpyridin-2-yl)piperazin-1-yl]ethyl}-4H-pyrrolo[3,2,1-ij]quinoline] was tested, and the inhibition in vivo at 20 µmol/kg [1] was 90% and the inhibition at 10 µM [2] was 89%.

Molecule Cc1ccnc(N2CCN(CCc3c(C)n4c5c(cc(Br)cc35)CCC4)CC2)c1 [Example 9, 8-Bromo-2-methyl-1-{2-[4-(4-methylpyridin-2-yl)piperazin-1-yl]ethyl}-5,6-dihydro-4H-pyrrolo[3,2,1-ij]quinoline] has an inhibition in vivo at 20 µmol/kg [1] of 80% and an inhibition at 10 µM [2] of 73%.

Cc1ccnc(N2CCN(CCc3c(C)n4c5c(cc(C(O)C(C)C)cc35)CCC4)CC2)c1 (stereo not shown) [Example 19, 5,6-Dihydro-8-(1-hydroxy-2-methylpropyl)-2-methyl-1-{2-[4-(4-methylpyridin-2-yl)piperazin-1-yl]ethyl}-4H-pyrrolo-[3,2,1-ij]quinoline] showed an inhibition in vivo at 20 µmol/kg [1] of 95% and an inhibition at 10 µM [2] of 83%.

Work on Cc1ccnc(N2CCN(CCc3c(C)n4c5c(cc(CC(C)C)cc35)CCC4)CC2)c1 [Example 21, 5,6-Dihydro-2-methyl-8-(2-methylpropyl)-1-{2-[4-(4-methylpyridin-2-yl)piperazin-1-yl]ethyl}-4H-pyrrolo[3,2,1-ij]quinoline] yielded an inhibition in vivo at 20 µmol/kg [1] of 90% and an inhibition at 10 µM [2] of 91%.

With Cc1ccnc(N2CCN(CCc3c(-c4ccc(O)cc4)n4c5c(cccc35)CCC4)CC2)c1 [Example 8, 2-(4-hydroxyphenyl)-1-{2-[4-(4-methylpyridin-2-yl)piperazin-1-yl]ethyl}-5,6-dihydro-4H-pyrrolo[3,2,1-ij]quinoline] the inhibition at 10 µM [2] was 100%.

CCCCC1CCc2cc(C(=O)C(C)C)cc3c(CCN4CCN(c5cc(C)ccn5)CC4)c(C)n1c23 (stereo not shown) [Example 23, 4-n-Butyl-5,6-dihydro-8-(2-methyl-1-oxopropyl)-2-methyl-1-{2-[4-(4-methylpyridin-2-yl)piperazin-1-yl]ethyl}-4H-pyrrolo[3,2,1-ij]quinoline] was tested, and the inhibition in vivo at 20 µmol/kg [1] was 95% and the inhibition at 10 µM [2] was 100%.

For CCCCC1CCc2cccc3c(CCN4CCN(c5cc(C)ccn5)CC4)c(C)n1c23 (stereo not shown) [Example 73, 4-n-butyl-5,6-dihydro-2-methyl-1-{2-[4-(4-methylpyridin-2-yl)piperazin-1-yl]ethyl}-4H-pyrrolo[3,2,1-ij]quinoline], the inhibition in vivo at 20 µmol/kg [1] was 95% and the inhibition at 10 µM [2] was 99%.

Cc1ccnc(N2CCN(CCc3c(C)n4c5c(cc(N)cc35)CCC4)CC2)c1 [Example 20, 8-Amino-5,6-dihydro-2-methyl-1-{2-[4-(4-methylpyridin-2-yl)piperazin-1-yl]ethyl}-4H-pyrrolo[3,2,1-ij]quinoline] showed an inhibition in vivo at 20 µmol/kg [1] of 95% and an inhibition at 10 µM [2] of 17%.

CC(=O)Oc1cc2c3c(c1)c(CCN1CCN(c4cc(C)ccn4)CC1)c(C)n3CCC2 [Example 24, 8-Acetoxy-5,6-dihydro-2-methyl-1-{2-[4-(4-methyl-pyridin-2-yl)piperazin-1-yl]ethyl}-4H-pyrrolo[3,2,1-ij]quinoline] showed an inhibition in vivo at 20 µmol/kg [1] of 60% and an inhibition at 10 µM [2] of 80%.

CCCCC1CCc2cc(OC)cc3c(CCN4CCN(c5cc(C)ccn5)CC4)c(C)n1c23 (stereo not shown) [Example 63] was tested, and the inhibition in vivo at 20 µmol/kg [1] was 95% and the inhibition at 10 µM [2] was 98%.

Cc1ccnc(N2CCN(CCc3c(-c4ccc(F)cc4)n4c5c(cccc35)CCC4)CC2)c1 [Example 47] gave an inhibition in vivo at 20 µmol/kg [1] of 20% and an inhibition at 10 µM [2] of 95%.

For Cc1ccnc(N2CCN(CCc3c(C)n4c5c(cccc35)CC4C)CC2)c1 (stereo not shown) [Example 33], the inhibition in vivo at 20 µmol/kg [1] was 93% and the inhibition at 10 µM [2] was 71%.

Molecule CCc1c(CCN2CCN(c3cc(C)ccn3)CC2)c2cccc3c2n1CCC3 [Example 15, 2-Ethyl-5,6-dihydro-1-{2-[4-(4-methylpyridin-2-yl)piperazin-1-yl]ethyl}-4H-pyrrolo[3,2,1-ij]quinoline] has an inhibition in vivo at 20 µmol/kg [1] of 65% and an inhibition at 10 µM [2] of 85%.

CNc1cc2c3c(c1)c(CCN1CCN(c4cc(C)ccn4)CC1)c(C)n3CCC2 [Example 80] was tested, and the inhibition at 10 µM [2] was 72%.

CC(=O)c1cc2c3c(c1)c(CCN1CCN(c4cc(C)ccn4)CC1)c(C)n3CCC2 [Example 67] gave an inhibition in vivo at 20 µmol/kg [1] of 95% and an inhibition at 10 µM [2] of 76%.

COc1ccc(C2CCc3cccc4c(CCN5CCN(c6cc(C)ccn6)CC5)c(C)n2c34)cc1 (stereo not shown) [Example 59] was tested, and the inhibition in vivo at 20 µmol/kg [1] was 95% and the inhibition at 10 µM [2] was 89%.

Work on Cc1ccnc(N2CCN(CCc3c(C)n4c5c(cccc35)C(C)CC4)CC2)c1 (stereo not shown) [Example 57] yielded an inhibition in vivo at 20 µmol/kg [1] of 95% and an inhibition at 10 µM [2] of 86%.

In the case of Cc1ccnc(N2CCN(CCc3c(C)n4c5c(cc(N(C)C)cc35)CCC4)CC2)c1 [Example 81], the inhibition in vivo at 20 µmol/kg [1] is reported as 82%.

Molecule Cc1ccnc(N2CCN(CCc3c(C)n4c5c(cc(C(=O)C6CCCCC6)cc35)CCC4)CC2)c1 [Example 83] has an inhibition at 10 µM [2] of 100%.

Cc1ccnc(N2CCN(CCc3c(C)n4c5c(cccc35)CCC4C3CCCCC3)CC2)c1 (stereo not shown) [Example 87] gave an inhibition at 10 µM [2] of 100%.

Cc1ccnc(N2CCN(CC(O)c3c(C4CCCCC4)n4c5c(cccc35)CCC4)CC2)c1 (stereo not shown) [Example 85] was tested, and the inhibition at 10 µM [2] was 100%.

Work on Cc1ccnc(N2CCN(CCc3c(C)n4c5c(c(C(O)C(C)C)ccc35)SCC4)CC2)c1 (stereo not shown) [Example 89] yielded an inhibition at 10 µM [2] of 100%.
